System: 565232-114-T-J1-PDC complex spheroid viability
Assay: Anticancer human tumor 565232-114-T-J1-PDC patient-derived bladder carcinoma cell line growth inhibition [CLK]
Details: for IC50: curve of first compound; for viability, T/C: stronger effect = lower value
Procedure, shortened: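 Patient-derived tumor cells grown as complex spheroids with HUVEC endothelial cells and mesenchymal stem cells, treated with drug combinations. Concentrations descend in half-log steps from near clinical Cmax, or from 10 microM if Cmax unknown.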

[1] = second compound 0.0316 µM, first compound 0.0316 µM
[2] = second compound 0.0316 µM, first compound 0.1 µM
[3] = second compound 0.1 µM, first compound 0.0316 µM
[4] = second compound 0.1 µM, first compound 0.1 µM
[5] = second compound 0.316 µM, first compound 0.0316 µM
[6] = second compound 0.316 µM, first compound 0.1 µM
[7] = second compound 1 µM, first compound 0.0316 µM
[8] = second compound 1 µM, first compound 0.1 µM
[9] = second compound 3.16 µM, first compound 0.0316 µM
[10] = second compound 3.16 µM, first compound 0.1 µM
[11] = second compound 10 µM, first compound 0.0316 µM
[12] = second compound 10 µM, first compound 0.1 µM
[13] = second compound 0.0316 µM, first compound 0.316 µM
[14] = second compound 0.0316 µM, first compound 1 µM
[15] = second compound 0.0316 µM, first compound 3.16 µM
[16] = second compound 0.0316 µM, first compound 10 µM
[17] = second compound 0.1 µM, first compound 0.316 µM
[18] = second compound 0.1 µM, first compound 1 µM
[19] = second compound 0.1 µM, first compound 3.16 µM
[20] = second compound 0.1 µM, first compound 10 µM
[21] = second compound 0.316 µM, first compound 0.316 µM
[22] = second compound 0.316 µM, first compound 1 µM
[23] = second compound 0.316 µM, first compound 3.16 µM
[24] = second compound 0.316 µM, first compound 10 µM
[25] = second compound 1 µM, first compound 0.316 µM
[26] = second compound 1 µM, first compound 1 µM
[27] = second compound 1 µM, first compound 3.16 µM
[28] = second compound 1 µM, first compound 10 µM
[29] = second compound 3.16 µM, first compound 0.316 µM
[30] = second compound 3.16 µM, first compound 1 µM
[31] = second compound 3.16 µM, first compound 3.16 µM
[32] = second compound 3.16 µM, first compound 10 µM
[33] = second compound 10 µM, first compound 0.316 µM
[34] = second compound 10 µM, first compound 1 µM
[35] = second compound 10 µM, first compound 3.16 µM
[36] = second compound 10 µM, first compound 10 µM
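Note: spheroids exposed to compounds for 7 days before readout.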
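Throughout, for viability, T/C: 100% = DMSO vehicle wells with luminescence normalized to vehicle control.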

In the case of `Cn1ncnc1[C@H]1c2n[nH]c(=O)c3cc(F)cc(c23)N[C@@H]1c1ccc(F)cc1` + CN1CCN(c2cc(C(=O)Nc3cc4cc(-c5cnn(C)c5)ccc4cn3)ccn2)CC1, the IC50 (second compound 0.0316 µM) is reported as > 100 nM, the IC50 (second compound 0.1 µM) is reported as > 100 nM and the IC50 (second compound 0.316 µM) is reported as < 0.316 nM. The IC50 (second compound 1 µM) was < 0.316 nM, the IC50 (second compound 3.16 µM) was < 0.316 nM and the IC50 (second compound 10 µM) was < 0.316 nM. For the same molecule, the viability, T/C (second compound 0.0316 µM, first compound 0.000316 µM) was 100%, the viability, T/C (second compound 0.0316 µM, first compound 0.001 µM) was 76.1% and the viability, T/C (second compound 0.0316 µM, first compound 0.00316 µM) was 91.5%. The viability, T/C (second compound 0.0316 µM, first compound 0.01 µM) was 82.1%, the viability, T/C [1] was 135% and the viability, T/C [2] was 102%. For the same molecule, the viability, T/C (second compound 0.1 µM, first compound 0.000316 µM) was 86.2%, the viability, T/C (second compound 0.1 µM, first compound 0.001 µM) was 84.3% and the viability, T/C (second compound 0.1 µM, first compound 0.00316 µM) was 111%. For the same molecule, the viability, T/C (second compound 0.1 µM, first compound 0.01 µM) was 112%, the viability, T/C [3] was 110% and the viability, T/C [4] was 90.9%. The viability, T/C (second compound 0.316 µM, first compound 0.000316 µM) was 16.9%, the viability, T/C (second compound 0.316 µM, first compound 0.001 µM) was 24% and the viability, T/C (second compound 0.316 µM, first compound 0.00316 µM) was 20.2%. For the same molecule, the viability, T/C (second compound 0.316 µM, first compound 0.01 µM) was 21.3%, the viability, T/C [5] was 21.5% and the viability, T/C [6] was 19.5%. It also gave a viability, T/C (second compound 1 µM, first compound 0.000316 µM) of 0.16%, a viability, T/C (second compound 1 µM, first compound 0.001 µM) of 0.26% and a viability, T/C (second compound 1 µM, first compound 0.00316 µM) of 1.61%. The viability, T/C (second compound 1 µM, first compound 0.01 µM) was 0.19%, the viability, T/C [7] was 1.31% and the viability, T/C [8] was 0.83%. For the same molecule, the viability, T/C (second compound 3.16 µM, first compound 0.000316 µM) was 0.42%, the viability, T/C (second compound 3.16 µM, first compound 0.001 µM) was 0.22% and the viability, T/C (second compound 3.16 µM, first compound 0.00316 µM) was 2.43%. For the same molecule, the viability, T/C (second compound 3.16 µM, first compound 0.01 µM) was 0.14%, the viability, T/C [9] was 1.43% and the viability, T/C [10] was 2.75%. The viability, T/C (second compound 10 µM, first compound 0.000316 µM) was 0.15%, the viability, T/C (second compound 10 µM, first compound 0.001 µM) was 1.85% and the viability, T/C (second compound 10 µM, first compound 0.00316 µM) was 1.09%. The viability, T/C (second compound 10 µM, first compound 0.01 µM) was 1.69%, the viability, T/C [11] was 0.53% and the viability, T/C [12] was 1.35%.

In the case of `Nc1ccn(C2OC(CO)C(O)C2(F)F)c(=O)n1` (stereo unspecified) + CN1CCN(c2cc(C(=O)Nc3cc4cc(-c5cnn(C)c5)ccc4cn3)ccn2)CC1, the IC50 (second compound 0.0316 µM) is reported as 192 nM, the IC50 (second compound 0.1 µM) is reported as 242 nM and the IC50 (second compound 0.316 µM) is reported as < 31.6 nM. The IC50 (second compound 1 µM) was < 31.6 nM, the IC50 (second compound 3.16 µM) was < 31.6 nM and the IC50 (second compound 10 µM) was < 31.6 nM. For the same molecule, the viability, T/C [1] was 93.3%, the viability, T/C [2] was 62.8% and the viability, T/C [13] was 40.7%. For the same molecule, the viability, T/C [14] was 33.8%, the viability, T/C [15] was 38% and the viability, T/C [16] was 38.3%. It also gave a viability, T/C [3] of 112%, a viability, T/C [4] of 74.6% and a viability, T/C [17] of 42.3%. The viability, T/C [18] was 32.8%, the viability, T/C [19] was 30.2% and the viability, T/C [20] was 29.7%. For the same molecule, the viability, T/C [5] was 18%, the viability, T/C [6] was 21.2% and the viability, T/C [21] was 20.4%. It also gave a viability, T/C [22] of 19%, a viability, T/C [23] of 16.7% and a viability, T/C [24] of 17.5%. For the same molecule, the viability, T/C [7] was 0.16%, the viability, T/C [8] was 0.19% and the viability, T/C [25] was 0.2%. For the same molecule, the viability, T/C [26] was 0.11%, the viability, T/C [27] was 1.16% and the viability, T/C [28] was 1.27%. It also gave a viability, T/C [9] of 0.18%, a viability, T/C [10] of 2.52% and a viability, T/C [29] of 0.18%. It also gave a viability, T/C [30] of 0.15%, a viability, T/C [31] of 0.92% and a viability, T/C [32] of 1.45%. It also gave a viability, T/C [11] of 0.18%, a viability, T/C [12] of 1.54% and a viability, T/C [33] of 0.18%. It also gave a viability, T/C [34] of 0.17%, a viability, T/C [35] of 2.1% and a viability, T/C [36] of 4.24%.

In the case of `O=c1[nH]cc(F)c(=O)[nH]1` + CN1CCN(c2cc(C(=O)Nc3cc4cc(-c5cnn(C)c5)ccc4cn3)ccn2)CC1, the IC50 (second compound 0.0316 µM) is reported as > 10000 nM, the IC50 (second compound 0.1 µM) is reported as > 10000 nM and the IC50 (second compound 0.316 µM) is reported as < 31.6 nM. For the same molecule, the IC50 (second compound 1 µM) was < 31.6 nM, the IC50 (second compound 3.16 µM) was < 31.6 nM and the IC50 (second compound 10 µM) was < 31.6 nM. It also gave a viability, T/C [1] of 95.6%, a viability, T/C [2] of 77.4% and a viability, T/C [13] of 105%. It also gave a viability, T/C [14] of 106%, a viability, T/C [15] of 123% and a viability, T/C [16] of 113%. It also gave a viability, T/C [3] of 90.5%, a viability, T/C [4] of 83.1% and a viability, T/C [17] of 101%. It also gave a viability, T/C [18] of 130%, a viability, T/C [19] of 171% and a viability, T/C [20] of 120%. For the same molecule, the viability, T/C [5] was 16.8%, the viability, T/C [6] was 18.7% and the viability, T/C [21] was 22.1%. It also gave a viability, T/C [22] of 22.7%, a viability, T/C [23] of 19.2% and a viability, T/C [24] of 17.1%. It also gave a viability, T/C [7] of 0.2%, a viability, T/C [8] of 0.42% and a viability, T/C [25] of 0.17%. The viability, T/C [26] was 0.16%, the viability, T/C [27] was 1.57% and the viability, T/C [28] was 0.22%. It also gave a viability, T/C [9] of 0.2%, a viability, T/C [10] of 0.14% and a viability, T/C [29] of 1.23%. It also gave a viability, T/C [30] of 0.14%, a viability, T/C [31] of 1.73% and a viability, T/C [32] of 1.38%. It also gave a viability, T/C [11] of 0.13%, a viability, T/C [12] of 0.29% and a viability, T/C [33] of 0.25%. For the same molecule, the viability, T/C [34] was 0.15%, the viability, T/C [35] was 0.19% and the viability, T/C [36] was 1.01%.
